Where two headings read alike, the source gives them in different places.
Assays:
washed human platelets = assay: Collagen-induced platelet aggregation, light transmission aggregometry (Born method); format: cell-based; settings: for IC50: Homo sapiens; for IC50 / activity at 20 µM: Platelet; for activity at 20 µM: compound 20 µM, means ± SDs of three experiments, 100% = agonist alone
Protocol: Light transmission aggregometry, i.e., the Born method, was used to determine in vitro antiplatelet aggregation activity using collagen as the agonist for platelet aggregation. Collagen was selected as the agonist, since it is the most thrombogenic component of the subendothelial layer. Collagen also serves as a substrate for platelet adhesion and as an inducer of platelet activation.
All experiments using human blood from healthy volunteers were performed according to the protocols approved by the Institutional Review Board at Cincinnati Children’s Hospital Medical Center, Cincinnati, Ohio. Each volunteer was required to sign an informed consent form approved by the IRB. Procedures for drawing human blood, isolating platelet-rich plasma (PRP), and preparing washed platelet suspensions were the same as those previously reported. […] PRP was obtained by means of the centrifugation of blood at 1400 rpm for 15 min at room temperature. PRP was centrifuged at 4000 rpm for 10 min at room temperature, and the platelet pellet was resuspended in HEPES Tyrode’s solution (pH 7.4) without calcium. Platelets were counted using Hemavet 950FS (Drew Scientific, Oxford, CT, USA), and the count was adjusted to 2.5 × 10^8/mL for aggregation studies.
The in vitro antiplatelet activity of the compounds was assayed on washed human platelets using light transmission aggregometry. Platelet aggregation was performed using a 4-channel Lumi-aggregometer (Chronolog, PA, USA) at 37 °C and stirring speed of 900 rpm. A volume of 250 µL of washed human platelets (2.5 × 10^8/mL) was pre-warmed to 37 °C along with the compounds or DMSO (0.1%) for 2 min before the addition of agonists such as collagen, AA, U46619 (a stable synthetic analog of thromboxane A2), ADP, and thrombin. For ATP secretion, platelets were pre-incubated with a luciferin/luciferase kit (Chrono-lume®) for 30 s at 37 °C before the addition of the agonist. The reactions were allowed to proceed for at least 4 min, and the results of platelet aggregation and ATP secretion were determined using Aggrolink software. Platelet aggregation was expressed as the maximum change in the light transmission, where the 100% value corresponded to treatment with the agonist alone. Compounds were evaluated in triplicate at nine compound concentrations ranging from 50 µM to 1 µM.

RhoA = assay: RhoA-GTP formation, GST-Rhotekin effector pull-down assay in collagen-stimulated platelets; format: cell-based, human; settings: 20 µM, 2 min pre-incubation; collagen 1 µg/mL for 4 min
Protocol: Next, the ability of the six compounds to suppress RhoA activity in platelets was assessed by subjecting them to a GST (Glutathione-S-transferase)-Rhotekin effector pull-down assay. The compounds were incubated with washed human platelets for 2 min before being stimulated with 1 µg/mL collagen. The analogs inhibited the activation of RhoA at the 20 µM concentration (Figure 2A,B). […] After confirming that these analogs could prevent RhoA activation and the phosphorylation of the MLC, their ability to disrupt complex-formation between RhoA and LARG was tested. […] These findings indicate that the active analogs inhibit RhoA activation by disrupting the binding between RhoA and its GEF.
(A,B) Washed human platelets were incubated with collagen (1 µg/mL) for 4 min, and the levels of RhoA-GTP formation were quantified with a GST-Rhotekin effector pull-down assay. The platelets were pre-incubated with 20 µM UC-177618, UC-177619, UC-177628, UC-177629, […], or […] for 2 min before being stimulated with collagen. The addition of ice-cold lysis buffer terminated the reaction. […] Relative amounts of the GTP-bound form of RhoA were quantified with densitometry measurements of total RhoA (T-RhoA) and normalized to untreated platelets. (C,D) The addition of 20 µM of active Rhosin-related compounds to washed human platelets 2 min before stimulation with collagen blocked the phosphorylation of the myosin light chain (p-MLC). The reactions were terminated after 4 min by adding 4x Laemmli sample buffer. The samples were processed for Western blotting and probed for MLC and p-MLC, and phosphorylation was quantified by measuring the densitometry of total MLC (T-MLC). The differences between DMSO- and Rhosin-related compounds were analyzed with t-test, and the results are shown as means ± SDs of three independent experiments. (* p < 0.05, ** p < 0.01, *** p < 0.001, and **** p < 0.0001).
The relative levels of RhoA-GTP in washed human platelets were quantified with effector domains GST-Rhotekin pull-down assays as previously reported. A volume of 250 µL of washed human platelets (2.5 × 10^8/mL) was pre-warmed to 37 °C along with the compounds or DMSO (0.1%) for 2 min before being stimulated with collagen (1 µg/mL). The reactions were terminated 4 min after collagen stimulation by adding ice-cold lysis buffer (20 mM Tris·HCl (pH 7.6), 100 mM NaCl, 1% Triton X-100, 0.2% Sodium Deoxycholate, 10 mM MgCl2, 1 mM dithiothreitol, 1x protease inhibitor cocktail, and 1x phosphatase inhibitor cocktail). The supernatants were collected and subjected to the GST-Rhotekin pull-down assay. The total cell lysates were also blotted in parallel. GTP-bound RhoA was quantitatively detected with Western blotting using an anti-RhoA antibody. The relative amounts of RhoA were quantified with densitometry measurements and normalized to the untreated platelets.

[1] = collagen 1 µg/mL, washed human platelets, dose-response curves, read-out: IC50 (95% CI) of platelet aggregation
[2] = collagen-induced platelet aggregation, compounds without IC50 determination estimated from percent inhibition at 20 µM, read-out: IC50 (SAR table)
[3] = washed human platelets, read-out: % Platelet Aggregation, Collagen (1 µg/mL)
[4] = washed human platelets, read-out: % Platelet Aggregation, Collagen (5 µg/mL)

| Compound | IC50 (washed human platelets; [1]) [µM] | IC50 (washed human platelets; [2]) [µM] | activity at 20 µM (washed human platelets; [3]) [%] | activity at 20 µM (washed human platelets; [4]) [%] | RhoA-GTP formation (RhoA) | activity in collagen-induced platelet aggregation (SAR statement) (washed human platelets; relative to the quinoline analogs) |
| --- | --- | --- | --- | --- | --- | --- |
| Cc1ccc(C(=O)NNc2ccnc3c(C(F)(F)F)cccc23)cc1 [UC-177633] | 2.38 | 2.34 | 3.3 ± 3.2 | 10.1 ± 8.3 | inhibited RhoA-GTP formation | – |
| Cc1ccc(C(=O)NNc2ccnc3cc(Cl)ccc23)cc1 [UC-177634] | – | 4.59 | 17 ± 2.6 | 24.5 ± 3.9 | – | – |
| Cc1ccc(C(=O)NNc2cc(C)c3ccccc3n2)cc1 [UC-177635] | – | > 20 | 79.1 ± 7 | 90.1 ± 8.3 | – | – |
| O=C1OCCN1NC1CCOc2ccc(-n3cc[nH]c3=S)cc21 (centres unmarked) [UC-177639] | – | – | 80 ± 17.3 | 90.4 ± 9.1 | – | – |
| O=C(NNC1CCc2ccccc21)c1cc2ccccc2[nH]1 (centres unmarked) [UC-178838] | – | 3.55 | 7.3 ± 5.8 | 13.7 ± 7.9 | – | nearly equipotent |
| Cc1[nH]c2ccccc2c1/C=N/NC(=O)c1cccnc1 [UC-390484] | – | – | 81 ± 14 | 88.1 ± 10 | – | – |
| COc1ccc2cc(/C=N/NC(=O)Cc3c[nH]c4ccccc34)ccc2c1 [UC-391695] | – | – | 79 ± 8 | 84.8 ± 12.1 | – | – |
| COc1cc(/C=N/NC(=O)C2COc3ccccc3O2)ccc1O (centres unmarked) [UC-392453] | – | – | 90.7 ± 8.5 | 94.7 ± 11.2 | – | – |
| O=S(=O)(Nc1cc(C(F)(F)F)ccc1Cl)c1cccc2cccnc12 [UC-406794] | 5.2 | – | 12.7 ± 7.2 | 25 ± 5.2 | – | – |
| Cc1ccc(C)c(OCC(=O)N/N=C/c2cn(Cc3ccccc3)c3ccccc23)c1C [UC-436352] | – | – | 84.7 ± 15.5 | 89 ± 2.5 | – | – |
| O=C(N/N=C/c1ccc(O)cc1)c1cc2ccccc2[nH]1 [UC-612333] | – | – | 70 ± 5.6 | 78.6 ± 14.9 | – | – |
| CN(Cc1ccccc1)C(=O)C(N)Cc1c[nH]c2ccccc12 (centres unmarked) [UC-651009] | – | – | 86 ± 1.7 | 89.2 ± 10.6 | – | – |
| N[C@@H](Cc1c[nH]c2ccccc12)C(=O)Nc1ccc2oc(C(=O)O)cc2c1 [UC-830013] | – | – | 93 ± 10.8 | 91.3 ± 14.7 | – | – |
| S=C(NNc1ccnc2cc(Cl)ccc12)Nc1ccccc1Cl [UC-936377] | – | – | 61.3 ± 4.5 | 71.7 ± 5.3 | – | – |
| Cc1[nH]c2ccccc2c1CCNC(=O)c1ccc2nccnc2c1 [UC-984842] | – | – | 91.3 ± 10.5 | 95.9 ± 6.2 | – | – |

From paper PMC9961652 (International Journal of Molecular Sciences, 2023)
